Each compound was assayed against full-length human PRMT6 (Flag- and His-tagged) (Homo sapiens, UniProt Q96LA8) (assay: PRMT6 biochemical assay (3H-SAM Flashplate, histone H4 36-50 K44me1 peptide)). Details: 1 nM PRMT6, 30 min preincubation, 75 nM peptide.
Procedure, shortened: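 Flag/His-tagged full-length PRMT6 (1 nM) pre-incubated 30 min RT with compound in 20 mM Bicine pH 7.6, then given 200 nM 3H-SAM, 250 nM cold SAM and 75 nM biotinylated H4 36-50 K44me1 peptide. Methylated peptide captured on streptavidin Flashplates and counted; % inhibition versus DMSO and 1 mM SAH controls, fitted to 3- or 4-parameter curves.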

Sequence of full-length human PRMT6 (Flag- and His-tagged) (Q96LA8 with tags, fused parts or gaps): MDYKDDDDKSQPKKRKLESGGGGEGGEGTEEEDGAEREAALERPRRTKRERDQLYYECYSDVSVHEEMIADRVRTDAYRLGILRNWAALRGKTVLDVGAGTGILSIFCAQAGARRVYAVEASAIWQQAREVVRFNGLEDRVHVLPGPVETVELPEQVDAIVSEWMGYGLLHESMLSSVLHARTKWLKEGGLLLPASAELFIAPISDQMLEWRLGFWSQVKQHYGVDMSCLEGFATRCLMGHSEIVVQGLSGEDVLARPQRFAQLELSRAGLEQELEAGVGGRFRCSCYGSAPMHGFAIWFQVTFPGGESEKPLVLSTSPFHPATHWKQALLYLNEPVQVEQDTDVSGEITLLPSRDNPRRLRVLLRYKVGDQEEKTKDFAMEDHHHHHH

IC50 | Structure (SMILES)
10.2 nM | CC[C@H]1CC[C@@H](c2n[nH]cc2CN(C)CCNC)CC1 [compound 1]
42 nM | CCOCCOCC1(COCCOCC)CCC(c2n[nH]cc2CN(C)CCNC)CC1 [compound 39, N1-((3-(4,4-bis((2-ethoxyethoxy)methyl)cyclohexyl)-1H-pyrazol-4-yl)methyl)-N1,N2-dimethylethane-1,2-diamine]
37.4 nM | CNCCN(C)Cc1c[nH]nc1C1CCC(COCCC2CCOCC2)(COCCC2CCOCC2)CC1 [compound 40]
6.94 nM | CNCCN(C)Cc1c[nH]nc1C1CCC(COCC2CC2)(COCC2CC2)CC1 [compound 41, N1-((3-(4,4-bis((cyclopropylmethoxy)methyl)cyclohexyl)-1H-pyrazol-4-yl)methyl)-N1,N2-dimethylethane-1,2-diamine]
90.9 nM | CN(C)CCN(C)Cc1c[nH]nc1[C@H]1CC[C@@]2(CC1)CC(C)(C)CO2 [compound 42, N1-((3-((5S,8S)-3,3-dimethyl-1-oxaspiro[4.5]decan-8-yl)-1H-pyrazol-4-yl)methyl)-N1,N2,N2-trimethylethane-1,2-diamine]
288 nM | CN(C)CCN(C)Cc1c[nH]nc1[C@H]1CC[C@]2(CC1)CC(C)(C)CO2 [compound 43, N1-((3-((5r,8r)-3,3-dimethyl-1-oxaspiro[4.5]decan-8-yl)-1H-pyrazol-4-yl)methyl)-N1,N2,N2-trimethylethane-1,2-diamine]
21.5 nM | CNCCN(C)Cc1c[nH]nc1C1CCC(CO)(CO)CC1 [compound 44, (4-(4-((methyl(2-(methylamino)ethyl)amino)methyl)-1H-pyrazol-3-yl)cyclohexane-1,1-diyl)dimethanol]
53.7 nM | CNCCN(C)Cc1c[nH]nc1C1CCC(COC)(COCC2CCOCC2)CC1 (stereo not drawn) [compound 45]
59.7 nM | CNCCN(C)Cc1c[nH]nc1C1=CCC2(CC1)CC(C)(C)CO2 (stereo not drawn) [compound 46, N1-((3-(3,3-dimethyl-1-oxaspiro[4.5]dec-7-en-8-yl)-1H-pyrazol-4-yl)methyl)-N1,N2-dimethylethane-1,2-diamine]
15.8 nM | CCC1(CC)C[C@]2(CC[C@H](c3n[nH]cc3CN(C)CCNC)CC2)NC1=O [compound 47, (5s,8s)-3,3-diethyl-8-(4-((methyl(2-(methylamino)ethyl)amino)methyl)-1H-pyrazol-3-yl)-1-azaspiro[4.5]decan-2-one]
73.6 nM | CCC1(CC)C[C@]2(CC[C@@H](c3n[nH]cc3CN(C)CCNC)CC2)NC1=O [compound 48, (5r,8r)-3,3-diethyl-8-(4-((methyl(2-(methylamino)ethyl)amino)methyl)-1H-pyrazol-3-yl)-1-azaspiro[4.5]decan-2-one]
128 nM | CNCCN(C)Cc1ccnn1[C@H]1CC[C@@]2(CC1)CC(C)(C)CO2 [compound 49, N1-((1-((5s,8s)-3,3-dimethyl-1-oxaspiro[4.5]decan-8-yl)-1H-pyrazol-5-yl)methyl)-N1,N2-dimethylethane-1,2-diamine]

From patent publication US20170291905A1, “ARGININE […] INHIBITORS AND USES THEREOF” (Epizyme, Inc., priority 2014, published 2017)
